Read-outs that look alike come from different tables or passages of the source.

Holding throughout (assay type): cell-based
In assay [1] the test system is human dermal fibroblasts from Parkinson's Disease patients. As to the kind of experiment: Rescue of fibroblasts from Parkinson's Disease patients from oxidative stress (similar to Example A). Conditions: PD fibroblasts AG20439, BSO-stressed, read-out: EC50, protection against Parkinson's. How it is done:
[Worded in the source for another cell line; this cell line is reported under the same test.] (§1) An initial screen was performed to identify compounds effective for the amelioration of redox disorders. Test samples, 4 reference compounds (Idebenone, decylubiquinone, Trolox and α-tocopherol acetate), and solvent controls were tested for their ability to rescue FRDA fibroblasts stressed by addition of L-buthionine-(S,R)-sulfoximine (BSO), as described in Jauslin et al., Hum. Mol. Genet. 11(24):3055 (2002), Jauslin et al., FASEB J. 17:1972-4 (2003), and International Patent Application WO 2004/003565. […] This specific BSO-mediated cell death can be prevented by administration of antioxidants or molecules involved in the antioxidant pathway, such as α-tocopherol, selenium, or small molecule glutathione peroxidase mimetics. However, antioxidants differ in their potency, i.e. the concentration at which they are able to rescue BSO-stressed FRDA fibroblasts.
(§2) Test samples were screened according to the following protocol: • A culture with FRDA fibroblasts was started from a 1 ml vial with approximately 500,000 cells stored in liquid nitrogen. […]
(§3) 100 μl of PBS containing 1.2 μM Calcein AM were then added to each well. […] After that time the PBS was discarded, the plate gently tapped on a paper towel and fluorescence (excitation/emission wavelengths of 485 nm and 525 nm, respectively) was read on a Gemini fluorescence reader. […]

For assay [2], the system named is human dermal fibroblasts from LHON patients. Briefly: Rescue of fibroblasts from LHON patients from oxidative stress (as Example A). The conditions noted are these: Fibroblast, LHON fibroblasts GM03858, BSO-stressed, read-out: EC50, protection against LHON. How it is done: [Worded in the source for another cell line; this cell line is reported under the same test.] as §1, §2, §3

In assay [3] the test system is Human dermal fibroblasts from Friedreich's Ataxia patients. As to the kind of experiment: Rescue of BSO-stressed FRDA fibroblasts (Calcein AM viability). Conditions: FRDA fibroblasts GM04078, BSO-stressed, read-out: EC50, protection against Friedreich's ataxia. The procedure: as §1
MEM (a medium enriched in amino acids and vitamins, catalog no. 1-31F24-I) and Medium 199 (M199, catalog no. 1-21F22-I) with Earle's Balanced Salts, without phenol red, were purchased from Bioconcept. Fetal Calf Serum was obtained from PAA Laboratories. Basic fibroblast growth factor and epidermal growth factor were purchased from PeproTech. Penicillin-streptomycin-glutamine mix, L-buthionine (S,R)-sulfoximine, (+)-α-tocopherol acetate, decylubiquinone, and insulin from bovine pancreas were purchased from Sigma. Trolox (6-hydroxy-2,5,7,8-tetramethylchromane-2-carboxylic acid) was obtained from Fluka. Idebenone was obtained from Chemo Iberica. Calcein AM was purchased from Molecular Probes. Cell culture medium was made by combining 125 ml M199 EBS, 50 ml Fetal Calf Serum, 100 U/ml penicillin, 100 μg/ml streptomycin, 2 mM glutamine, 10 μg/ml insulin, 10 ng/ml EGF, and 10 ng/ml bFGF; MEM EBS was added to make the volume up to 500 ml. A 10 mM BSO solution was prepared by dissolving 444 mg BSO in 200 ml of medium with subsequent filter-sterilization. During the course of the experiments, this solution was stored at +4° C. […]

Assay [4] concerns human dermal fibroblasts from CoQ10 deficient patients harboring a CoQ2 mutation. Briefly: Rescue of fibroblasts from CoQ10 deficient patients from oxidative stress (similar to Example A). Conditions: BSO-stressed, read-out: EC50, protection against CoQ10. The procedure:
[Worded in the source for another cell line; this cell line is reported under the same test.] as §1
Test samples were screened according to the following protocol: • A culture with FRDA fibroblasts was started from a 1 ml vial with approximately 500,000 cells stored in liquid nitrogen. Cells were propagated in 10 cm cell culture dishes by splitting every third day in a ratio of 1:3 until nine plates were available. Once confluent, fibroblasts were harvested. For 54 micro titer plates (96 well-MTP) a total of 14.3 million cells (passage eight) were re-suspended in 480 ml medium, corresponding to 100 μl medium with 3,000 cells/well. The remaining cells were distributed in 10 cm cell culture plates (500,000 cells/plate) for propagation. The plates were incubated overnight at 37° C. in an atmosphere with 95% humidity and 5% CO2 to allow attachment of the cells to the culture plate.
MTP medium (243 μl) was added to a well of the microtiter plate. […]
as §3

Usually EC50 stands for the concentration needed to bring the measured effect to its halfway point. Turning to `CN1CCc2c(c3ccccc3n2Cc2ccccc2)C1` [5-benzyl-2-methyl-2,3,4,5-tetrahydro-1H-pyrido[4,3-b]indole], the EC50 was 0.93 µM in assay [1] (Homo sapiens, Fibroblast); 1.2 µM in assay [2]; 4.26 µM in assay [3] (Homo sapiens); 3.35 µM in assay [4] (Homo sapiens, Fibroblast).

On to `Cc1ccc2c(c1)c1c(n2CCc2ccc(C)nc2)CCN(C)C1` [dimebolin, 2,8-dimethyl-5-(2-(6-methylpyridin-3-yl)ethyl)-2,3,4,5-tetrahydro-1H-pyrido[4,3-b]indole], for which the EC50 in assay [3] (Homo sapiens) is 1.9 µM; in assay [4] (Homo sapiens, Fibroblast), 0.23 µM.

For the compound `Cc1ccc2c(c1)C1CNCCC1N2` (stereo not drawn) [8-methyl-1,3,4,4a,5,9b-tetrahydro-1H-pyrido[4,3-b]indole], the figures for the 50% effective concentration (EC50) in assay [1], in assay [3] and in assay [4] were 3.68 µM, 4.1 µM and 7 µM, respectively.

The values are drawn from patent US20100029706A1, “HYDROGENATED PYRIDO[4,3-b]INDOLES FOR THE TREATMENT OF OXIDATIVE STRESS” (Edison Parmaceuticals, Inc. a Delaware Corporation, priority 2008, published 2010).
